Among the data in PubChem BioAssay (NCI) are TGI and GI50 values, retold here.

What all share (test): DTP human tumour cell line panel, 48 h
Experiment [1] concerns CCRF-CEM leukemia.
Experiment [2] relates to HCC-2998 colon.
In experiment [3] the test system is HL-60(TB) leukemia.
Experiment [4] has as its system M14 melanoma.
The test system of experiment [5] is U251 CNS.
Experiment [6] concerns SN12C renal.
The subject of experiment [7] is UACC-62 melanoma.
Experiment [8] relates to OVCAR-4 ovarian.
The subject of experiment [9] is RPMI-8226 leukemia.
Experiment [10] concerns COLO 205 colon.

SMILES strings stand for the structures. Several values for one entry are separate records, joined by “and”; a condition that tells them apart may be missing. Identical values can stand only once.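 Values below derive from 48-hour exposures of cells grown in 96-well plates, with endpoints linearly interpolated between the two concentrations bracketing the appropriate inhibition level. GI50 marks 50% less growth. TGI: concentration producing complete growth inhibition.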

As a reminder, the TGI is the concentration at which net growth stops. The low end stands for greater sensitivity of the cells, the high end for lower sensitivity of the cells. With `COC1=CC(=O)c2c(O)c3c(c(O)c2C1=O)CC(C)(O)OC3` (configuration not stated), the TGI in experiment [1] came to 17.4 µM; in experiment [2], 13.9 µM; in experiment [3] it was 24.2 µM; in experiment [4], 4.53 µM; in experiment [5] it was 10.5 µM; in experiment [6], 14.2 µM. The TGI was 7.35 µM in [7], 4.51 µM in experiment [8], more than 76.8 µM in experiment [9] and 4.76 µM in [10].
What is called GI50 is the concentration that inhibits growth by half. As for `Cc1cc(C)c2nc(Nc3nc(C)c(C)c(=O)[nH]3)nc(C)c2c1`, the GI50 was 2720 nM in experiment [1]; 3810 nM in experiment [2]; 2530 nM in [3]; 2580 nM in experiment [4]; 3180 nM in [5]; 2270 nM in [6]. Further, the GI50 in [7] is 2080 nM; in experiment [8], 3.27 µM; in experiment [9], 2130 nM; in experiment [10], 2510 nM. Besides, the total growth inhibition concentration (TGI) in experiment [1] came to 8.61 µM; in experiment [2] it was 19.6 µM; in experiment [3], 6.98 µM; in experiment [4] it was 8.79 µM; in experiment [5], 12 µM; in experiment [6], 12 µM. Further, the TGI in experiment [7] was found to be 5.5 µM; in [8] it was 15.6 µM; in [9] it was 6.21 µM; in [10], 7.51 µM.
For the compound `CCCCCCCCOCC(O)COC` (configuration not stated), the TGI in experiment [1], in experiment [2], in experiment [3], in [4], in [5] and in [6] was more than 100 µM throughout. For the same compound, the TGI in experiment [7], in experiment [8], in experiment [9] and in experiment [10] was more than 100 µM each time.
With `O=C1CCc2cc([N+](=O)[O-])ccc2O1`, the TGI in experiment [1], in experiment [2], in [3], in [4], in [5] and in experiment [6] was more than 100 µM in each case. Further, the TGI in experiment [7], in [8], in experiment [9] and in experiment [10] was more than 100 µM throughout.
As to `COc1cc(Oc2cnc3cc(N)cc(N)c3n2)cc(OC)c1OC`, the GI50 was 50700 nM in experiment [1]; 15600 nM in experiment [2]; 21900 nM in [3]; 22700 nM in [4]; more than 100000 nM in experiment [5]; 71200 nM in [6]. The GI50 in experiment [7] is 35400 nM; in experiment [8], 37.3 µM; in experiment [9], 21900 nM; in experiment [10] it was 27800 nM. Further, the TGI in [1] was more than 100 µM; in [2], 32.2 µM; in experiment [3], 45 µM; in [4], 76.2 µM; in [5] it was more than 100 µM; in experiment [6], more than 100 µM. Moreover, the TGI in experiment [7] is more than 100 µM; in experiment [8], more than 100 µM; in [9] it was 45 µM; in experiment [10] it was 71.6 µM.
Consider `Nc1ccc(Cl)cc1.Nc1ccc(Cl)cc1.Nc1ccc(Cl)cc1.O=C([O-])C(=O)[O-].O=C([O-])C(=O)[O-].[H+].[Ru+5]`, for which the 50% growth inhibitory concentration (GI50) in experiment [1] is 176 nM; in experiment [2], 439 nM; in experiment [3] it was 104 nM; in experiment [4], more than 100000 nM; in experiment [5] it was 938 nM; in experiment [6], more than 24500 nM. Further, the GI50 in experiment [7] is less than 17.4 nM; in experiment [8], more than 100 µM; in [9], 147 nM; in experiment [10], 36.2 nM. Moreover, the TGI is more than 68 µM in experiment [1]; more than 87.8 µM in experiment [3]; more than 100 µM in [4]; more than 100 µM in [5]; more than 100 µM in [6]; more than 100 µM in [8]. Further, the TGI is more than 100 µM in [9] and 0.169 µM in experiment [10].
Consider `CCCCCc1c(C)[nH]c(/C=C2\N=C(c3ccc[nH]3)C=C2Oc2ccc(OC)cc2)c1C`, for which the GI50 was 25.7 nM in experiment [1]; 96.3 nM and 36.9 nM in experiment [2]; 209 nM in experiment [3]; 167 nM and 23.4 nM in experiment [4]; 81.1 nM and 26 nM in experiment [5]; 200 nM and 48.3 nM in experiment [6]. In addition, the GI50 was 112 nM and 27.1 nM in experiment [7]; 0.15 µM and 0.0221 µM in experiment [8]; 89.6 nM and 31.3 nM in experiment [9]; 125 nM and 28 nM in experiment [10]. Besides, the TGI in experiment [1] is more than 100 µM; in experiment [2], 6.44 µM and 1.91 µM; in [3], 0.924 µM; in experiment [4] it was 0.458 µM and 0.0635 µM; in [6], 1.54 µM and 0.418 µM; in experiment [7], 0.272 µM and 0.0725 µM. The TGI was 2.02 µM in experiment [8]; 1.13 µM and 0.332 µM in experiment [9]; 0.502 µM and 0.19 µM in [10].
With `O=C(CCCCCn1c2ccccc2c2c3c(c4c5ccccc5[nH]c4c21)C(=O)N(O)C3=O)N1CCOCC1`, the GI50 in experiment [1] is 1430 nM; in experiment [2], 1850 nM; in experiment [3], 2010 nM; in experiment [4], 2140 nM; in experiment [5], 2260 nM; in experiment [6], 3370 nM. The GI50 was 2050 nM in experiment [7], 3.57 µM in experiment [8], 1970 nM in experiment [9] and 2300 nM in [10]. The TGI is 4.93 µM in experiment [1]; 3.54 µM in [2]; 5.45 µM in experiment [3]; 5.52 µM in experiment [4]; 5.59 µM in [5]; more than 100 µM in [6]. Further, the TGI was 5.4 µM in [7], more than 100 µM in experiment [8], 5.43 µM in [9] and 5.65 µM in [10].
`COc1ccc(CNCCN2C(=O)c3ccc4c5c(ccc(c35)C2=O)C(=O)N(CCNCc2ccc(OC)cc2)C4=O)cc1`: the GI50 is 227 nM in [1]; 304 nM in [2]; 311 nM in experiment [3]; 169 nM in [4]; 199 nM in [5]; 159 nM in experiment [6]. In addition, the GI50 in experiment [7] is 392 nM; in [8], 0.122 µM; in [9] it was 487 nM; in experiment [10], 137 nM. Moreover, the TGI in [1] was 3.29 µM; in experiment [2] it was 1.05 µM; in experiment [3] it was 0.858 µM; in experiment [4], 0.348 µM; in experiment [5] it was 0.48 µM; in experiment [6] it was 0.323 µM. In addition, the TGI in experiment [7] worked out at 1.5 µM; in experiment [8], 0.255 µM; in experiment [9], 3.14 µM; in experiment [10], 0.281 µM.
